Inconclusive results and toxic doses are left out.
System: CD2F1 mice, L1210 leukemia ip, survival T/C
Assay: NCI In Vivo Anticancer Drug Screen. Data for tumor model L1210 Leukemia (intraperitoneal) in CD2F1 (CDF1) mice
Conditions: higher = longer survival
How it was run: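 Transplantable tumor in mice; compound-treated vs vehicle-treated groups. Read-out = treated/control ratio of the measured endpoint.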

[1] = endpoint: mean survival time, dose: 100.0 mg/kg/injection, schedule: Q01DX009 (ip), vehicle: saline with Tween-80
[2] = endpoint: mean survival time, dose: 100.0 mg/kg/injection, schedule: Q04DX003 (ip), vehicle: saline with Tween-80
[3] = endpoint: mean survival time, dose: 200.0 mg/kg/injection, schedule: Q01DX009 (ip), vehicle: saline with Tween-80
[4] = endpoint: mean survival time, dose: 200.0 mg/kg/injection, schedule: Q04DX003 (ip), vehicle: saline with Tween-80
[5] = endpoint: mean survival time, dose: 400.0 mg/kg/injection, schedule: Q04DX003 (ip), vehicle: saline with Tween-80
[6] = endpoint: mean survival time, dose: 100.0 mg/kg/injection, schedule: Q01DX001 (ip), vehicle: saline with Tween-80
[7] = endpoint: mean survival time, dose: 200.0 mg/kg/injection, schedule: Q01DX001 (ip), vehicle: saline with Tween-80

## O=NN(c1ccccc1)c1ccc([N+](=O)[O-])cc1
[1]
  T/C: 95 % of control
[2]
  T/C: 92 % of control
[3]
  T/C: 90 % of control
[4]
  T/C: 97 % of control
[5]
  T/C: 98 % of control

## CCC[CH2][Sn]1([CH2]CCC)[O]c2ccccc2[O]1
endpoint: mean survival time, dose: 1.56 mg/kg/injection, schedule: Q04DX002 (ip), vehicle: saline with Tween-80
  T/C: 100 % of control
endpoint: mean survival time, dose: 3.12 mg/kg/injection, schedule: Q04DX002 (ip), vehicle: saline with Tween-80
  T/C: 96 % of control
endpoint: mean survival time, dose: 6.25 mg/kg/injection, schedule: Q04DX002 (ip), vehicle: saline with Tween-80
  T/C: 98 % of control
endpoint: mean survival time, dose: 12.5 mg/kg/injection, schedule: Q04DX002 (ip), vehicle: saline with Tween-80
  T/C: 113 % of control

## O=[N+]([O-])c1ccc2nc3c(nc2c1)-c1cccc2cccc-3c12
[1]
  T/C: 98 % of control
[3]
  T/C: 98 % of control
endpoint: mean survival time, dose: 400.0 mg/kg/injection, schedule: Q01DX009 (ip), vehicle: saline with Tween-80
  T/C: 98 % of control

## CS(=O)(=O)OCC(/C=C/C(COS(C)(=O)=O)OS(C)(=O)=O)OS(C)(=O)=O (configuration not stated)
endpoint: mean survival time, dose: 100.0 mg/kg/injection, schedule: Q01DX009 (ip), vehicle: Klucel (hydroxypropylcellulose) (HPC)
  T/C: 150 % of control
endpoint: mean survival time, dose: 200.0 mg/kg/injection, schedule: Q01DX009 (ip), vehicle: Klucel (hydroxypropylcellulose) (HPC)
  T/C: 175 % of control

## COc1ccc(/C=N/N=C(/N)N[N+](=O)[O-])cc1
endpoint: mean survival time, dose: 100.0 mg/kg/injection, schedule: Q01DX001 (ip), vehicle: Klucel (hydroxypropylcellulose) (HPC)
  T/C: 94 % of control
endpoint: mean survival time, dose: 200.0 mg/kg/injection, schedule: Q01DX001 (ip), vehicle: Klucel (hydroxypropylcellulose) (HPC)
  T/C: 97 % of control
endpoint: mean survival time, dose: 400.0 mg/kg/injection, schedule: Q01DX001 (ip), vehicle: Klucel (hydroxypropylcellulose) (HPC)
  T/C: 94 % of control

## O=[N+]([O-])c1ccc(N/N=C(\CBr)c2ccccc2)c([N+](=O)[O-])c1
[6]
  T/C: 101 % of control
[7]
  T/C: 92 % of control
endpoint: mean survival time, dose: 400.0 mg/kg/injection, schedule: Q01DX001 (ip), vehicle: saline with Tween-80
  T/C: 93 % of control

## OC(CS)C(c1ccccc1)c1ccccc1 (configuration not stated)
[2]
  T/C: 98 % of control
[4]
  T/C: 93 % of control
[5]
  T/C: 96 % of control

## CCOC(=O)CC1=Cc2c(OC)ccc(OC)c2CC1
endpoint: mean survival time, dose: 12.5 mg/kg/injection, schedule: Q01DX009 (ip), vehicle: other
  T/C: 95 % of control
endpoint: mean survival time, dose: 25.0 mg/kg/injection, schedule: Q01DX009 (ip), vehicle: other
  T/C: 106 % of control
endpoint: mean survival time, dose: 50.0 mg/kg/injection, schedule: Q01DX009 (ip), vehicle: other
  T/C: 98 % of control
endpoint: mean survival time, dose: 100.0 mg/kg/injection, schedule: Q01DX009 (ip), vehicle: other
  T/C: 92 % of control
endpoint: mean survival time, dose: 200.0 mg/kg/injection, schedule: Q01DX009 (ip), vehicle: other
  T/C: 88 % of control

## COC(=O)NC1C(C)OC(OC2C/C=C(/C)C3C=CC4C(OC5CC(OC6CC(O)C(OC7CC(O)C(OC)C(C)O7)C(C)O6)C(O)C(C)O5)C(C)CC(C)C4C3(C)/C(O)=C3\C(=O)OC4(CC(C)C(CO)=CC4/C=C\2C)C3=O)CC1(C)[N+](=O)[O-] (configuration not stated)
endpoint: median survival time, dose: 12.5 mg/kg/injection, schedule: Q01DX009 (ip), vehicle: Klucel (hydroxypropylcellulose) (HPC)
  T/C: 102 % of control
endpoint: median survival time, dose: 25.0 mg/kg/injection, schedule: Q01DX009 (ip), vehicle: Klucel (hydroxypropylcellulose) (HPC)
  T/C: 109 % of control
endpoint: median survival time, dose: 50.0 mg/kg/injection, schedule: Q01DX009 (ip), vehicle: Klucel (hydroxypropylcellulose) (HPC)
  T/C: 102 % of control
endpoint: median survival time, dose: 100.0 mg/kg/injection, schedule: Q01DX009 (ip), vehicle: Klucel (hydroxypropylcellulose) (HPC)
  T/C: 103 % of control

## Cc1ccc(S(=O)(=O)OC(C#N)c2ccccc2)cc1 (configuration not stated)
endpoint: mean survival time, dose: 50.0 mg/kg/injection, schedule: Q01DX009 (ip), vehicle: saline with Tween-80
  T/C: 100 % of control
endpoint: mean survival time, dose: 50.0 mg/kg/injection, schedule: Q04DX003 (ip), vehicle: saline with Tween-80
  T/C: 102 % of control
[6]
  T/C: 98 % of control
[1]
  T/C: 101 % of control
[2]
  T/C: 101 % of control
[7]
  T/C: 105 % of control
[4]
  T/C: 107 % of control

## Cc1ccc(S(=O)(=O)OCCCCCOS(=O)(=O)c2ccc(C)cc2)cc1 (tested in a mixture with another compound)
endpoint: mean survival time, dose: 100.0 mg/kg/injection, schedule: Q04DX002 (ip), vehicle: saline with Tween-80
  T/C: 102 % of control
endpoint: mean survival time, dose: 200.0 mg/kg/injection, schedule: Q04DX002 (ip), vehicle: saline with Tween-80
  T/C: 94 % of control
endpoint: mean survival time, dose: 400.0 mg/kg/injection, schedule: Q04DX002 (ip), vehicle: saline with Tween-80
  T/C: 94 % of control

## CCCCCCCC(=O)O[C@H]1[C@H]2[C@@H](CC1(C)C)C(=O)[C@]13O[C@H]1C(=O)[C@]1(CO1)[C@]23C
endpoint: median survival time, dose: 1.25 mg/kg/injection, schedule: Q01DX009 (ip), vehicle: saline with Tween-80
  T/C: 101 % of control
endpoint: median survival time, dose: 2.5 mg/kg/injection, schedule: Q01DX009 (ip), vehicle: saline with Tween-80
  T/C: 104 % of control
endpoint: median survival time, dose: 5.0 mg/kg/injection, schedule: Q01DX009 (ip), vehicle: saline with Tween-80
  T/C: 104 % of control
endpoint: median survival time, dose: 10.0 mg/kg/injection, schedule: Q01DX009 (ip), vehicle: saline with Tween-80
  T/C: 107 % of control
endpoint: median survival time, dose: 20.0 mg/kg/injection, schedule: Q01DX009 (ip), vehicle: saline with Tween-80
  T/C: 107 % of control
